In patent publication US7550624B2, “Pharmaceutically active salts and esters of 1-dimethylamino-3-(3-methoxyphenyl)-2-methylpentan-3-ol and 3- (3-dimethylamino-1-ethyl-1-hydroxy-2-methylpropyl)-phenol and methods of using same” (Gruenenthal GmbH, priority 2002, dated 2009):
Marks after values point to notes of the source that are not given here.

Tested on: female Sprague-Dawley rats
Assay: Cystometry tests on conscious fresh rats
Type: in vivo, rat
Conditions: for effect on the bladder regulation (in words): iv, cystometric parameters
Description: Cystometry investigations were carried out on fresh female Sprague-Dawley rats according to the method of Ishizuka et. al. ((1997), Naunyn-Schmiedeberg's Arch. Pharmacol. 355: 787-793). Three days after implantation of bladder and venous catheters the animals were investigated in the conscious state while freely moving. The bladder catheter was connected to a pressure gauge and an injection pump. The animals were placed in metabolic cages that enable the volume of urine to be measured. Physiological saline solution was infused (10 ml/hour) into the emptied bladder and the bladder pressure and volume of urine were continuously recorded. After a stabilisation phase a 20-minute phase was recorded that was characterised by normal, reproducible micturition cycles. The following parameters among others were measured: • threshold pressure TP, bladder pressure immediately before micturition, • bladder capacity BC, residual volume after prior micturition plus volume of infused solution during the filling phase, • intercontraction interval ICI, i.e. the time interval between consecutive micturition.
An increase in the threshold pressure (TP) indicates an important therapeutic effect in one of the medical conditions covered by the invention. Also, the intercontraction interval (ICI) is an important parameter for measuring the physiological effectiveness of a substance in the treatment of urinary incontinence, as is the bladder capacity (BC). In this connection, on account of the widely differing causes of the symptoms of these disease patterns it is not necessary to influence positively all three parameters in order for a medicament to be effective.
After recording three reproducible micturition cycles to provide a baseline value, the test substances 1 (1.0 mg/kg), 2 (0.1; 0.3 and 0.5 mg/kg), 21 (0.5 mg/kg) and 7 (0.3 mg/kg) in a vehicle comprising 0.9% NaCl were applied intravenously and the effect on the cystometric parameters was recorded at 90 to 120 minutes. In the effect maximum the mean value of 3 micturition cycles was determined and recorded as a percentage change compared to the baseline value (Table 1).

[1] = 0.3 mg/kg iv, effect maximum, mean of 3 micturition cycles
[2] = 0.5 mg/kg iv, effect maximum, mean of 3 micturition cycles

Structure (SMILES) | BC Bladder Capacity (change compared to the baseline value) (1.0 mg/kg iv, effect maximum, mean of 3 micturition cycles) | BC Bladder Capacity (change compared to the baseline value) [1] | ICI Inter-Contraction Interval (change compared to the baseline value) [1] | BC Bladder Capacity (change compared to the baseline value) (0.1 mg/kg iv, effect maximum, mean of 3 micturition cycles) | BC Bladder Capacity (change compared to the baseline value) [2] | effect on the bladder regulation (in words) | TP Threshold Pressure (change compared to the baseline value) [2]
CC[C@](O)(c1cccc(OC)c1)[C@H](C)CN(C)C.Cl (racemic) [Compound 1, (2RS,3RS)-1-dimethylamino-3-(3-methoxyphenyl)-2-methylpentan-3-ol, hydrochloride] | +31%** |  |  |  |  |  | 
CCC(O)(c1cccc(O)c1)C(C)CN(C)C.Cl (racemic) [Compound 7, (2RS,3RS)-3-(3-dimethylamino-1-ethyl-1-hydroxy-2-methylpropyl)-phenol, hydrochloride] |  | +32%** | +2%* |  |  |  | 
CC[C@](O)(c1cccc(OC)c1)[C@H](C)CN(C)C.Cl [Compound 2, (+)-(2R,3R)-1-dimethylamino-3-(3-methoxyphenyl)-2-methylpentan-3-ol, hydrochloride] |  | +33%** |  | +7.8%** | +20.6%** | very effective | 
CC[C@@](O)(c1cccc(OC)c1)[C@@H](C)CN(C)C.Cl [Compound 21, (−)-(2S,3S)-1-dimethylamino-3-(3-methoxyphenyl)-2-methylpentan-3-ol, hydrochloride] |  |  |  |  | +3%** | does not exhibit such a marked effect | −1.1%**
